According to US9586951B2 (FUJIFILM Corporation, priority 2013, dated 2017):

Biological target: T1, ATM (Homo sapiens, UniProt Q13315)
T1 construct: detecting phosphorylation of Chk2 in a human non-small cell lung cancer cell line NCI-H460 (ATCC company); host or cells: NCI-H460 human non-small cell lung cancer cells
Experiment: ATM inhibition test (phosphorylation of Chk2 generated by ionizing radiation, AlphaScreen SureFire)
Assay type: cell-based
Conditions: phosphorylated Chk2 in NCI-H460 cells, ionizing radiation 8Gy, 1 hour after test compound treatment; read-out: ATM inhibitory activity
Method in brief: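 NCI-H460 cells treated with compound for 1 hour, then irradiated with 8Gy and incubated 1 hour at 37° C. Phospho-Chk2 measured by AlphaScreen SureFire. Inhibition ratio calculated relative to untreated irradiated and non-irradiated wells.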

T1 sequence (Q13315 whole entry): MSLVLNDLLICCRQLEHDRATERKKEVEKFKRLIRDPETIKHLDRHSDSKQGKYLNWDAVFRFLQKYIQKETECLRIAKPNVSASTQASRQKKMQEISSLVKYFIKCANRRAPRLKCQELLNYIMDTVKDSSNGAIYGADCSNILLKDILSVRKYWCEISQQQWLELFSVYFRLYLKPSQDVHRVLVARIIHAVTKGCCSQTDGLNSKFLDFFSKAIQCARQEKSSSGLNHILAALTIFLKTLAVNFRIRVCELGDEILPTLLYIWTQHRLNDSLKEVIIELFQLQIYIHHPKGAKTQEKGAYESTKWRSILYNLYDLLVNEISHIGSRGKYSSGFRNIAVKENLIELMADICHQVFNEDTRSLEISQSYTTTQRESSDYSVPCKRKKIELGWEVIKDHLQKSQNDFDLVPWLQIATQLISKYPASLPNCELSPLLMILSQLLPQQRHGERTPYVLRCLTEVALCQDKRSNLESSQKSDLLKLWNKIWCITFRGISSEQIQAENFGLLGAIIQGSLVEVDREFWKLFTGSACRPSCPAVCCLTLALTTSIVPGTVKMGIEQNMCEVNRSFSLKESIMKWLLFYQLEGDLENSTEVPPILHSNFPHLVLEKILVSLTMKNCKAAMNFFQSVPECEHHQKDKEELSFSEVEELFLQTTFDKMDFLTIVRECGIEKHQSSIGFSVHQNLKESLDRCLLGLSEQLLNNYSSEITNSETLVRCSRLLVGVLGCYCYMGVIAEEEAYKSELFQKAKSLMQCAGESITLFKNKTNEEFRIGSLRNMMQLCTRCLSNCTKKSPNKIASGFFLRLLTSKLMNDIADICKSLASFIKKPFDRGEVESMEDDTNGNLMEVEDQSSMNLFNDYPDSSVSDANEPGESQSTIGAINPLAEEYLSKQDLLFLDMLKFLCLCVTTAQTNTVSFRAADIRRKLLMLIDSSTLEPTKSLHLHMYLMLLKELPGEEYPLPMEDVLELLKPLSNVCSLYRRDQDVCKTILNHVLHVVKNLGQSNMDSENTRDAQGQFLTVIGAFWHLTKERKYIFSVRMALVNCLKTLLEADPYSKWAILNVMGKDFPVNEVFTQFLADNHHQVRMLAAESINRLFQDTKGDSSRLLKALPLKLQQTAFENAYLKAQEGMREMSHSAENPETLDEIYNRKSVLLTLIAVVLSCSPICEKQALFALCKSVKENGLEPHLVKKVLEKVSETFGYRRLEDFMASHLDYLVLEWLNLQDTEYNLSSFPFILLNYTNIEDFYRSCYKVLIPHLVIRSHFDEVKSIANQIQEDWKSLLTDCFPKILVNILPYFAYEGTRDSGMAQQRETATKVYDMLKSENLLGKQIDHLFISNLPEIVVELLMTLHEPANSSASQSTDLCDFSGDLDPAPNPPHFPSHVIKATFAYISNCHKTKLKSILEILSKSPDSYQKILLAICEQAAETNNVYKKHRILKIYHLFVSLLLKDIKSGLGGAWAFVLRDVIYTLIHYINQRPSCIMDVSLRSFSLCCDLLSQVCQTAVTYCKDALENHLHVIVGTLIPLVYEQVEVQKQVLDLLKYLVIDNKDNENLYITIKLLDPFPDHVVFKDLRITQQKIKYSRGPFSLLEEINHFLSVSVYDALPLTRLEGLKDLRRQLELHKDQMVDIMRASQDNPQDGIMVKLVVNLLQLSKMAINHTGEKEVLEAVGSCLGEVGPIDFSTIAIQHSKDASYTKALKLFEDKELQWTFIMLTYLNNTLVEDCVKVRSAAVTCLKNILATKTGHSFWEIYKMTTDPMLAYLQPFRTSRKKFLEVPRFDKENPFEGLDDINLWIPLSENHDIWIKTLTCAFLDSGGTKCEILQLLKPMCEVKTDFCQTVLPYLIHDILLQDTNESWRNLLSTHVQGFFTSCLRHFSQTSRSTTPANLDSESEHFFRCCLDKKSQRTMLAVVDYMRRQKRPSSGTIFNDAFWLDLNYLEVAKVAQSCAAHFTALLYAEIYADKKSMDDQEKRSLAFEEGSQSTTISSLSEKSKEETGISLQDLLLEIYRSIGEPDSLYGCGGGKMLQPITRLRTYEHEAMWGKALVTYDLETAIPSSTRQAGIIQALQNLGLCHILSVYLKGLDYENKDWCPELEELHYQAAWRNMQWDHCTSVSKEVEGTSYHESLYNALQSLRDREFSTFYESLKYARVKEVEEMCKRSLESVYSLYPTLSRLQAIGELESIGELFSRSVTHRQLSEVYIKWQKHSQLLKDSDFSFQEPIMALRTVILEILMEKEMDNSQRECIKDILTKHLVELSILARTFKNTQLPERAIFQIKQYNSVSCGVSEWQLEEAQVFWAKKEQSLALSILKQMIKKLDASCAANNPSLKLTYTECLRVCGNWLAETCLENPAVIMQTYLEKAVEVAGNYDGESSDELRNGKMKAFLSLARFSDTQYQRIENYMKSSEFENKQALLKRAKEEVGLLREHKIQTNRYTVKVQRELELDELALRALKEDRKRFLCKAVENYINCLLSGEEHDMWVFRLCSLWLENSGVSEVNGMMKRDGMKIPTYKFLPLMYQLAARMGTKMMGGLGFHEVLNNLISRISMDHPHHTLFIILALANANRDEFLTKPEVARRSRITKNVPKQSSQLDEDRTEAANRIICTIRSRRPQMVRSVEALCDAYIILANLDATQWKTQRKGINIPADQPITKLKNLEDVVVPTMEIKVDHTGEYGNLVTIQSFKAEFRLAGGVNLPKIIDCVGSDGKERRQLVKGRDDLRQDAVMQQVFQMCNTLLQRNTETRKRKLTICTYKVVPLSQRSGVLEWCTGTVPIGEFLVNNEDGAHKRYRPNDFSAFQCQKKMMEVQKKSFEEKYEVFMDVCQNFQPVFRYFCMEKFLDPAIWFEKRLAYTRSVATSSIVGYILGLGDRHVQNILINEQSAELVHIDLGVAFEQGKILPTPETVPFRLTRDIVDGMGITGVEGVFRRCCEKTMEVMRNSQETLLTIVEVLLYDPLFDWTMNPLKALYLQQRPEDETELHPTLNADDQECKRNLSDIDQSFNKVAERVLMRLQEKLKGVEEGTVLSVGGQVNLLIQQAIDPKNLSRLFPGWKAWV

Structure (SMILES)	IC50 [nM]
CC(Nc1ccc2c(c1)Sc1cccc(-c3cc(N4CCOCC4)cc(=O)[nH]3)c1S2)c1ccncn1 (stereo not shown) [Example 1-12-74, 4-Morpholino-6-(7-((1-(pyrimidin-4-yl)ethyl)amino)thianthren-1-yl)pyridin-2 (1H)-one]	100 to 500
O=c1cc(N2CCOCC2)cc(-c2cccc3c2Sc2ccc(NC4CCCN(C5CCCC5)C4)cc2S3)[nH]1 (stereo not shown) [Example 1-24-5, 6-(7-((1-Cyclopentylpiperidin-3-yl)amino)thianthren-1-yl)-4-morpholino pyridin-2(1H)-one]	100 to 500
CC(CN1CCNCC1)Nc1ccc2c(c1)Sc1cccc(-c3cc(N4CCOCC4)cc(=O)[nH]3)c1S2 (stereo not shown) [Example 1-14, 4-Morpholino-6-(7-((1-(piperazin-1-yl)propan-2-yl)amino)thianthren-1-yl)pyridin-2(1H)-one]	500 to 2000
O=c1cc(N2CCOCC2)cc(-c2cccc3c2Oc2ccc(NCc4ccncc4Cl)cc2C3)[nH]1 [Example 2-2-25, 6-(7-(((3-Chloropyridin-4-yl)methyl)amino)-9H-xanthen-4-yl)-4-morpholino pyridin-2 (1H)-one]	100 to 500
CCC(Nc1ccc2c(c1)Sc1cccc(-c3cc(N4CCOCC4)cc(=O)[nH]3)c1S2)c1cncc(OC)c1 (stereo not shown) [Example 1-12-17, 6-(7-((1-(5-Methoxypyridin-3-yl)propyl)amino)thianthren-1-yl)-4-morpholino pyridin-2(1H)-one]	100 to 500
O=c1cc(N2CCOCC2)cc(-c2cccc3c2Oc2ccc(NC4CCN(Cc5ccoc5)CC4)cc2C3)[nH]1 [Example 2-28-28, 6-(7-((1-(Furan-3-ylmethyl)piperidin-4-yl)amino)-9H-xanthen-4-yl)-4-morpholino pyridin-2(1H)-one]	100 to 500
O=c1cc(N2CCOCC2)cc(-c2cccc3c2Oc2ccc(NCc4cncc(Cl)c4)cc2S3)[nH]1 [Example 4-8-6, 6-(8-(((5-Chloropyridin-3-yl)methyl)amino)phenoxathiin-4-yl)-4-morpholino pyridin-2(1H)-one]	100 to 500
O=c1cc(N2CCOCC2)cc(-c2cccc3c2Oc2ccc(NC4CCN(Cc5ccccc5)CC4)cc2C3)[nH]1 [Example 2-28-24, 6-(7-((1-Benzylpiperidin-4-yl)amino)-9H-xanthen-4-yl)-4-morpholino pyridin-2 (1H)-one]	100 to 500
CC(CN1CCO[C@@H](C)C1)Nc1ccc2c(c1)Sc1cccc(-c3cc(N4CCOCC4)cc(=O)[nH]3)c1S2 (stereo partly drawn) [Example 1-43-8, 6-(7-((4-((S)-2-Methylmorpholino)propan-2-yl)amino)thianthren-1-yl)-4-morpholino pyridin-2(1H)-one]	500 to 2000
CC(CCN1CCN(C)CC1)Nc1ccc2c(c1)Sc1cccc(-c3cc(N4CCOCC4)cc(=O)[nH]3)c1S2 (stereo not shown) [Example 1-42-2, 6-(7-((4-(4-Methylpiperazin-1-yl)butan-2-yl)amino)thianthren-1-yl)-4-morpholino pyridin-2(1H)-one]	100 to 500
Cc1ccc(C(Nc2ccc3c(c2)Sc2cccc(-c4cc(N5CCOCC5)cc(=O)[nH]4)c2S3)[C@@H]2CN(C)CCO2)nc1 (single isomer, unassigned) [Example 1-56-11]	< 100
O=c1cc(N2CCOCC2)cc(-c2cccc3c2Sc2ccc(NCCCc4cccnc4)cc2S3)[nH]1 [Example 1-12-27, 4-Morpholino-6-(7-((3-(pyridin-3-yl)propyl)amino)thianthren-1-yl)pyridin-2(1H)-one]	500 to 2000
CC(Nc1ccc2c(c1)Sc1cccc(-c3cc(N4CCOCC4)cc(=O)[nH]3)c1S2)c1cccc(CN2CCCC2)n1 (stereo not shown) [Example 1-12-110, 4-Morpholino-6-(7-((1-(6-(pyrrolidin-1-ylmethyl)pyridin-2-yl)ethyl)amino)thianthren-1-yl)pyridin-2 (1H)-one]	500 to 2000
CN1CC(Nc2ccc3c(c2)Sc2cccc(-c4cc(N5CCOCC5)cc(=O)[nH]4)c2S3)C(N2CCOCC2)C1 (racemic) [Example 11-2, 6-(7-((1-Methyl-4-morpholinopyrrolidin-3-yl)amino)thianthren-1-yl)-4-morpholinopyridin-2(1H)-one]	100 to 500
O=c1cc(N2CCOCC2)cc(-c2cccc3c2Oc2ccc(NC4CCN(CCCF)CC4)cc2C3)[nH]1 [Example 2-30-12, 6-(7-((1-(3-Fluoropropyl)piperidin-4-yl)amino)-9H-xanthen-4-yl)-4-morpholino pyridin-2(1H)-one]	500 to 2000
O=c1cc(N2CCOCC2)cc(-c2cccc3c2Oc2ccc(NC4CCN(Cc5cncnc5)CC4)cc2C3)[nH]1 [Example 2-28-4, 4-Morpholino-6-(7-((1-(pyrimidin-5-ylmethyl)piperidin-4-yl)amino)-9H-xanthen-4-yl)pyridin-2 (1H)-one]	100 to 500
CN1CCN(c2cccc(CNc3ccc4c(c3)Sc3cccc(-c5cc(N6CCOCC6)cc(=O)[nH]5)c3S4)n2)CC1 [Example 1-12-33, 6-(7-(((6-(4-Methylpiperazin-1-yl)pyridin-2-yl)methyl)amino)thianthren-1-yl)-4-morpholino pyridin-2 (1H)-one]	100 to 500
COc1cccc(CNc2ccc3c(c2)Cc2ccnc(-c4cc(N5CCOCC5)cc(=O)[nH]4)c2O3)n1 [Example 2-42-7, 6-(7-(((6-Methoxypyridin-2-yl)methyl)amino)-5H-chromeno[2,3-c]pyridin-1-yl)-4-morpholinopyridin-2(1H)-one]	500 to 2000
CN(C)[C@H](CNc1ccc2c(c1)Sc1cccc(-c3cc(N4CCOCC4)cc(=O)[nH]3)c1S2)Cc1ccccc1 [Example 1-2-2, (S)-6-(7-((2-(dimethylamino)-3-phenylpropyl)amino)thianthren-1-yl)-4-morpholinopyridin-2(1H)-one]	100 to 500
O=c1cc(N2CCOCC2)cc(-c2cccc3c2Oc2ccc(NC4CCN(Cc5cnccn5)CC4)cc2C3)[nH]1 [Example 2-28-7, 4-Morpholino-6-(7-((1-(pyrazin-2-ylmethyl)piperidin-4-yl)amino)-9H-xanthen-4-yl)pyridin-2 (1H)-one]	500 to 2000
CC(Nc1ccc2c(c1)Sc1cccc(-c3cc(N4CCOCC4)cc(=O)[nH]3)c1S2)c1ncc(CO)cn1 (single isomer, unassigned) [Example 1-12-142-2, 6-(7-((1-(5-(hydroxymethyl)pyrimidin-2-yl)ethyl)amino)thianthren-1-yl)-4-morpholinopyridin-2(1H)-one]	100 to 500
O=C(Nc1ncc(CNc2ccc3c(c2)Sc2cccc(-c4cc(N5CCOCC5)cc(=O)[nH]4)c2S3)cn1)N1CCCC1 [Example 1-12-48, N-(5-(((6-(4-Morpholino-6-oxo-1,6-dihydropyridin-2-yl)thianthren-2-yl)amino)methyl)pyrimidin-2-yl)pyrrolidine-1-car-boxamide]	100 to 500
O=c1cc(N2CCOCC2)cc(-c2cccc3c2Oc2ccc([N+](=O)[O-])cc2S3)[nH]1 [Example 4-1, 4-Morpholino-6-(8-nitrophenoxathiin-4-yl)pyridin-2(1H)-one]	500 to 2000
COc1ncc(CN2CCC(Nc3ccc4c(c3)Cc3cccc(-c5cc(N6CCOCC6)cc(=O)[nH]5)c3O4)CC2)cn1 [Example 2-28-14, 6-(7-((1-((2-Methoxypyrimidin-5-yl)methyl)piperidin-4-yl)amino)-9H-xanthen-4-yl)-4-morpholino pyridin-2(1H)-one]	100 to 500
CN(C)c1ccc(CNc2ccc3c(c2)Cc2cccc(-c4cc(N5CCOCC5)cc(=O)[nH]4)c2O3)cn1 [Example 2-2-8, 6-(7-(((6-(Dimethylamino)pyridin-3-yl)methyl)amino)-9H-xanthen-4-yl)-4-morpholino pyridin-2(1H)-one]	100 to 500
